From the supplement of paper PMC10307832

Assays:
Assay in all cases: relative viability (nuclei count vs DMSO), 5 days (fraction); higher = more cells survive
SK-LU-1 = system: SK-LU-1
In short: (§1)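 The day after seeding in 1536-well plates, lung cancer cell lines were treated by pin tool with a single drug, or with a fixed anchor-drug dose together with five library-drug doses (not always all listed) in √10 steps. After 5 days, a combined fix-and-stain solution (final 0.05% Triton X-100, 1% formaldehyde, 1 ug/ml Hoechst) was added. Nuclei counted on 4× images gave relative viability as treated counts over vehicle counts, reported as the median of duplicate plates.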

COR-L23 = system: COR-L23
In short: as §1

ABC-1 = system: ABC-1
In short: as §1

HOP-62 = system: HOP-62
In short: as §1

NCI-H1734 = system: NCI-H1734
In short: as §1

NCI-H1437 = system: NCI-H1437
In short: as §1

NCI-H3122 = system: NCI-H3122
In short: as §1

UMC-11 = system: UMC-11
In short: as §1

NCI-H727 = system: NCI-H727
In short: as §1

NCI-H1755 = system: NCI-H1755
In short: as §1

NCI-H2347 = details: first compound 0.001 µM
In short: as §1

## Cc1cn(-c2cc(NC(=O)c3ccc(C)c(Nc4nccc(-c5cccnc5)n4)c3)cc(C(F)(F)F)c2)cn1 [Nilotinib] + Nc1ncn([C@H]2C[C@H](O)[C@@H](CO)O2)c(=O)n1 [Decitabine] (partner 2 µM)
SK-LU-1; first compound 0.001 µM
  relative viability: 0.532
SK-LU-1; first compound 0.003162 µM
  relative viability: 0.627
SK-LU-1; first compound 0.01 µM
  relative viability: 0.699
SK-LU-1; first compound 0.03162 µM
  relative viability: 0.424
SK-LU-1; first compound 0.1 µM
  relative viability: 0.532
COR-L23; first compound 0.001 µM
  relative viability: 0.445
COR-L23; first compound 0.003162 µM
  relative viability: 0.493
COR-L23; first compound 0.01 µM
  relative viability: 0.464
COR-L23; first compound 0.03162 µM
  relative viability: 0.482
COR-L23; first compound 0.1 µM
  relative viability: 0.601
ABC-1; first compound 0.001 µM
  relative viability: 0.987
ABC-1; first compound 0.003162 µM
  relative viability: 0.946
ABC-1; first compound 0.01 µM
  relative viability: 1.05
ABC-1; first compound 0.03162 µM
  relative viability: 0.978
ABC-1; first compound 0.1 µM
  relative viability: 0.96
HOP-62; first compound 0.003162 µM
  relative viability: 0.276
HOP-62; first compound 0.03162 µM
  relative viability: 0.464
NCI-H1734; first compound 0.001 µM
  relative viability: 0.526
NCI-H1734; first compound 0.003162 µM
  relative viability: 0.605
NCI-H1734; first compound 0.01 µM
  relative viability: 0.629
NCI-H1734; first compound 0.03162 µM
  relative viability: 0.576
NCI-H1734; first compound 0.1 µM
  relative viability: 0.455
NCI-H1437; first compound 0.001 µM
  relative viability: 0.562
NCI-H1437; first compound 0.003162 µM
  relative viability: 0.632
NCI-H1437; first compound 0.01 µM
  relative viability: 0.625
NCI-H1437; first compound 0.03162 µM
  relative viability: 0.545
NCI-H1437; first compound 0.1 µM
  relative viability: 0.671
NCI-H3122; first compound 0.001 µM
  relative viability: 0.504
NCI-H3122; first compound 0.003162 µM
  relative viability: 0.468
NCI-H3122; first compound 0.01 µM
  relative viability: 0.505
NCI-H3122; first compound 0.03162 µM
  relative viability: 0.471
NCI-H3122; first compound 0.1 µM
  relative viability: 0.314
UMC-11; first compound 0.001 µM
  relative viability: 0.607
UMC-11; first compound 0.003162 µM
  relative viability: 0.591
UMC-11; first compound 0.01 µM
  relative viability: 0.566
UMC-11; first compound 0.03162 µM
  relative viability: 0.551
UMC-11; first compound 0.1 µM
  relative viability: 0.622
NCI-H727; first compound 0.001 µM
  relative viability: 0.67
NCI-H727; first compound 0.003162 µM
  relative viability: 0.818
NCI-H727; first compound 0.01 µM
  relative viability: 0.825
NCI-H727; first compound 0.03162 µM
  relative viability: 0.715
NCI-H727; first compound 0.1 µM
  relative viability: 0.606
NCI-H1755; first compound 0.001 µM
  relative viability: 0.742
NCI-H1755; first compound 0.003162 µM
  relative viability: 0.81
NCI-H1755; first compound 0.01 µM
  relative viability: 0.78
NCI-H1755; first compound 0.03162 µM
  relative viability: 0.961
NCI-H1755; first compound 0.1 µM
  relative viability: 0.846
NCI-H2347
  relative viability: 0.637
